Data reported in the supplement of paper PMC9265050, “Inhibition of RNA Binding in SND1 Increases the Levels of miR-1-3p and Sensitizes Cancer Cells to Navitoclax” (Cancers, 2022).

Tested on: SW480
Assay: drug sensitivity score (DSS, integrated dose-response area); higher = more sensitive (stronger viability reduction); extreme values may be limits of the assay
In short: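 The drug sensitivity score is the integrated area under a fitted non-linear dose–response model. It was derived from SW480 cells with doxycycline-inducible control or SND1-targeting shRNA, induced with 0.1 µg/mL doxycycline for 7 days and plated at 1000 cells per well on 384-well plates of 525 commercially available small-molecule inhibitors at five concentrations. CellTiter-Glo measured viability after 72 h.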

[1] = shRNA: SND1 shRNA1 (SND1 silenced)
[2] = shRNA: SND1 shRNA2 (SND1 silenced)
[3] = shRNA: control shRNA (non-targeting)

SMILES | drug sensitivity score [1] [DSS] | drug sensitivity score [2] [DSS] | drug sensitivity score [3] [DSS]
Cc1cc(OCc2nnc(SC3CCCC3)n2-c2cccnc2)ccc1-c1ccc(S(C)(=O)=O)cc1 [NMS-873] | 9.5 | 10.5 | 9
COc1cccc2c1c(O)c(C(=O)N(C)c1ccc(C(F)(F)F)cc1)c(=O)n2C [Tasquinimod] | 3.7 | 0 | 2.3
Cc1c(F)cc(C(=O)NC2CC2)cc1-c1ccc(C(=O)NCC(C)(C)C)cn1 [Losmapimod] | 0 | 0 | 0
C[C@]12O[C@H](C[C@]1(O)CO)n1c3ccccc3c3c4c(c5c6ccccc6n2c5c31)CNC4=O [Lestaurtinib] | 6.8 | 7.1 | 8.3
C[C@H]1Oc2cc(cnc2N)-c2c(nn(C)c2C#N)CN(C)C(=O)c2ccc(F)cc21 | 0.2 | 0.4 | 1.9
CNC(=O)c1cc(COc2nnc(Nc3ccc(Cl)cc3)c3ccoc23)ccn1 [Telatinib] | 0 | 0 | 0
CCCS(=O)(=O)Nc1ccc(F)c(C(=O)c2c[nH]c3ncc(-c4ccc(Cl)cc4)cc23)c1F [Vemurafenib] | 0 | 0.1 | 0
CC(C)Oc1ccc(C(=O)N[C@H](CNC(=O)CN(C)C)Cc2ccc(-c3cn4cccc([C@H](C)O)c4n3)cc2)cc1Cl | 13.1 | 12 | 13.3
CO[C@@]12[C@H](COC(N)=O)C3=C(C(=O)C(C)=C(N)C3=O)N1C[C@@H]1N[C@@H]12 [Mitomycin C] | 2.7 | 2.1 | 1
CCN(CC)CCCC(C)Nc1ccnc2cc(Cl)ccc12 (configuration not stated) [Chloroquine] | 14.9 |  | 11.6
Cn1cc(C2=Nc3cc(NC(=O)C(N)C4CCCCC4)cc4c3C2=CNNC4=O)cn1 (configuration not stated) | 8.3 | 8.3 | 10.7
NC(=O)NO [Hydroxyurea] | 0 | 0 | 0.2
COc1cc2c(cc1-c1c(C)noc1C)ncc1[nH]c(=O)n([C@H](C)c3ccccn3)c12 [I-BET151] | 1.4 | 0.5 | 2.4
CCc1cnn2c(NCc3ccc[n+]([O-])c3)cc(N3CCCC[C@H]3CCO)nc12 [Dinaciclib] | 18.1 | 15.8 | 20.1
Cn1c(Nc2ccc(C(F)(F)F)cc2)nc2cc(Oc3ccnc(-c4ncc(C(F)(F)F)[nH]4)c3)ccc21 [RAF265] | 0 | 1.8 | 2
OC[C@H]1O[C@@H](n2cnc3c2N=CNC[C@H]3O)C[C@@H]1O [Pentostatin] | 1.6 | 3.5 | 2.9
CN(c1ccccc1CNc1nc(Nc2ccc3c(c2)CC(=O)N3)ncc1C(F)(F)F)S(C)(=O)=O | 9.7 | 8.3 | 9.2
Cn1cc(-c2ccc3nnc(C(F)(F)c4ccc5ncccc5c4)n3n2)cn1 | 0 | 0 | 1.3
C[C@@H]1COC(Nc2ccc3ncnc(Nc4ccc(OCc5nccs5)c(Cl)c4)c3c2)=N1 [Varlitinib] | 0.4 | 1.2 | 3.5
Cc1ncc(-c2ccnc(Nc3ccc(S(C)(=O)=O)cc3)n2)n1C(C)C [AZD-5438] | 11.8 |  | 12.7
CNNCc1ccc(C(=O)NC(C)C)cc1 [Procarbazine] | 0 | 0 | 0
COc1cc2ncnc(Oc3cccc(NC(=O)Nc4cc(C(C)(C)C(F)(F)F)on4)c3)c2cc1OC | 4.5 | 0 | 4.2
CN1CC[C@H](c2c(O)cc(O)c3c(=O)cc(-c4ccccc4Cl)oc23)[C@H](O)C1 [Alvocidib] | 21.9 | 20.3 | 20.4
CCCC(CCC)C(=O)O [Valproic acid] | 0 |  | 0
Cc1c(C(=O)Nc2ccc(N3C[C@@H](C)O[C@@H](C)C3)nc2)cccc1-c1ccc(OC(F)(F)F)cc1 [Sonidegib] | 2.9 | 5.7 | 2.8

SMILES | drug sensitivity score [1] [DSS] | drug sensitivity score [2] [DSS] | drug sensitivity score [3] [DSS]
O=S(=O)(c1cccc2cnccc12)N1CCCNCC1 [Fasudil] | 3.1 | 3 | 6
C[C@]12C=CC(=O)C=C1CC[C@@H]1[C@@H]2C(=O)C[C@@]2(C)[C@H]1CC[C@]2(O)C(=O)CO [Prednisone] | 0.5 | 0.1 | 2.9
Nc1cccc2c1CN(C1CCC(=O)NC1=O)C2=O (configuration not stated) [Lenalidomide] | 0 | 0.1 | 2.3
O=C1c2c(O)ccc(O)c2C(=O)c2c(NCCNCCO)ccc(NCCNCCO)c21 [Mitoxantrone] | 1.9 | 0.3 | 0.8
C=CC(=O)N1CCC(Oc2cc3c(Nc4ccc(Cl)c(Cl)c4F)ncnc3cc2OC)CC1 [Poziotinib] | 0.6 | 4.1 | 0.2
N#CC1(c2ccc(NC(=O)c3cccnc3NCc3ccncc3)cc2)CCCC1 [Apatinib] | 0 | 0 | 0
Cc1ccc(NC(=O)c2ccc(CN3CC[C@H](N(C)C)C3)c(C(F)(F)F)c2)cc1Nc1nccc(-c2cncnc2)n1 [Bafetinib] | 0.3 | 0 | 0
Cc1c(CN2CCN(C(=O)[C@H](C)O)CC2)sc2c(N3CCOCC3)nc(-c3cnc(N)nc3)nc12 [Apitolisib] | 11 | 9.3 | 6.6
FC(F)(F)c1ccc(/C=C/c2nc(COc3ccc(CCCCn4ccnn4)cc3)co2)cc1 [Mubritinib] | 3.8 | 9.3 | 5.5
Cc1c2oc3c(C)ccc(C(=O)N[C@@H]4C(=O)N[C@H](C(C)C)C(=O)N5CCC[C@H]5C(=O)N(C)CC(=O)N(C)[C@@H](C(C)C)C(=O)O[C@@H]4C)c3nc-2c(C(=O)N[C@@H]2C(=O)N[C@H](C(C)C)C(=O)N3CCC[C@H]3C(=O)N(C)CC(=O)N(C)[C@@H](C(C)C)C(=O)O[C@@H]2C)c(N)c1=O [Dactinomycin] | 24.3 | 24 | 26.8
C/C(=C\c1csc(C)n1)[C@@H]1C[C@@H]2O[C@]2(C)CCC[C@H](C)[C@H](O)[C@@H](C)C(=O)C(C)(C)[C@@H](O)CC(=O)O1 [Patupilone] | 17.9 | 18.3 | 18.4
CNC(=O)c1nn(C)c2c1C(C)(C)Cc1cnc(Nc3ccc(N4CCN(C)CC4)cc3)nc1-2 [Milciclib] | 11.4 | 10.9 | 9.2
CNC(=O)c1ccc(N2C(=S)N(c3cnc(C#N)c(C(F)(F)F)c3)C(=O)C23CCC3)cc1F [ARN 509] | 0.7 | 0 | 0.9
CC(=O)Nc1ccc(C(=O)Nc2ccccc2N)cc1 [Tacedinaline] | 0 | 4.5 | 3.8
Cn1ncc(Cl)c1-c1cc(C(=O)N[C@H](CN)Cc2ccc(F)c(F)c2)oc1Cl [Uprosertib] | 0 | 0.3 | 0.2
CS(=O)(=O)c1ccc(C(=O)Nc2ccc(Cl)c(-c3ccccn3)c2)c(Cl)c1 [Vismodegib] | 0 | 0 | 0
O=C(/C=C/c1cccc(S(=O)(=O)Nc2ccccc2)c1)NO [Belinostat] | 16.4 | 13.8 | 12.7
CC(C)(O)CC(=O)NCCn1ccc2ncnc(Nc3ccc(Oc4cccc(C(F)(F)F)c4)c(Cl)c3)c21 [TAK-285] | 0 | 0 | 0
Cn1nnc2c(C(N)=O)ncn2c1=O [Temozolomide] | 0 | 5.2 | 2.4
Cc1csc(-c2nnc(Nc3ccc(Oc4ncccc4-c4ccnc(N)n4)cc3)c3ccccc23)c1 [AMG-900] | 5 | 0 | 1.7
CCN(CC)Cc1ccc2cc(COC(=O)Nc3ccc(C(=O)NO)cc3)ccc2c1 [Givinostat] | 6.6 | 7.3 | 6.7
CCCCNc1ncc(C(=O)NCc2ccc(-n3ccnc3)cc2)c(NC2CCC(O)CC2)n1 (configuration not stated) [UNC2881] | 0 | 0 | 0
O=C(Nc1cccc(Cl)c1)Nc1ncc(CCNc2ncnc3ccsc23)s1 [SNS-314] | 4.8 | 4.3 | 5.6
O=C(NC[C@H](O)CO)c1ccncc1Nc1ccc(I)cc1F [Pimasertib] | 26.3 | 16.5 | 7.4
C[C@H]1C[C@@H]2[C@H]([C@@H](O)C[C@@]3(C)[C@H]2CC[C@]3(O)C(=O)CO)[C@@]2(C)C=CC(=O)C=C12 [Methylprednisolone] | 0 | 1.4 | 0
